Source: US9096599B2, “Spiroindoline compounds” (Intervet Inc., priority 2011, dated 2015)

Test system: Ascaridia galli (L3) and Oesophagostumum dentatum (L3 and L4) larvae
Test: In vitro anthelmintic larval test, minimum effective concentration by microscopic examination
Assay type: cell-based
Settings: activity against one or both of the nematodes (A. galli L3; O. dentatum L3, L4), 96-well plates, 20 larvae per well, vs DMSO-control, read-out: minimum effective concentration (MEC)
Protocol: C: Biological Examples Efficacy Against Ascaridia galli and Oesophagostomum dentatum
Anthelmintic effects of compounds of this invention (numbers refer to compound numbers in Table I) were tested in vitro using gut-welling larval stages of two parasitic nematode species: Ascaridia galli (intestinal roundworm of chicken), larval stage 3 (“L3”); and Oesophagostumum dentatum (nodular worm of swine), larval stages 3 and 4 (respectively “L3” and “L4”). When conducting these experiments, DMSO-solutions of various concentrations of compounds of this invention were prepared and incubated in 96-well microtiter plates. The parasites were then distributed at 20 larvae per well. The anthelmintic effects were classified by microscopic examination. The microscopic examination included assessing mortality, damage, motility, progression of development, and neutral red uptake by the larvae in comparison to a DMSO-control.

Compound	minimal effective concentration [µM]
Cc1cc(C(=O)N2CC3(CCN(C/C=C/c4ccc(Cl)cc4Cl)CC3)c3cc(Sc4ccc(F)cc4)ccc32)ccn1 [Compound 31, [1′-[(E)-3-(2,4-dichlorophenyl)allyl]-5-(4-fluorophenyl)sulfanyl-spiro[indoline-3,4′-piperidine]-1-yl]-(2-methyl-4-pyridyl)methanone]	≤ 50
Cc1cc(C(=O)N2CC3(CCN(C/C=C/c4ccc(F)cc4)CC3)c3cc(Sc4ccc(F)cc4)ccc32)ccn1 [Compound 37, [1′-[(E)-3-(4-fluorophenyl)allyl]-5-(4-fluorophenyl)sulfanyl-spiro[indoline-3,4′-piperidine]-1-yl]-(2-methyl-4-pyridyl)methanone]	≤ 50
Cc1ccc(/C=C/CN2CCC3(CC2)CN(C(=O)c2ccnc(C)c2)c2ccc(Sc4ccc(F)cc4)cc23)c(C)c1 [Compound 22, [1′-[(E)-3-(2,4-dimethylphenyl)allyl]-5-(4-fluorophenyl)sulfanyl-spiro[indoline-3,4′-piperidine]-1-yl]-(2-methyl-4-pyridyl)methanone]	≤ 50
Cc1ccc(/C=C/CN2CCC3(CC2)CN(C(=O)c2ccnc(Cl)c2)c2ccc(Sc4ccc(F)cc4)cc23)c(C)c1 [Compound 20, (2-chloro-4-pyridyl)-[1′-[(E)-3-(2,4-dimethylphenyl)allyl]-5-(4-fluorophenyl)sulfanyl-spiro[indoline-3,4′-piperidine]-1-yl]methanone]	≤ 50
